Measurements as given in patent US11684763B2, “Multi-component bio-active drug delivery and controlled release to the skin by microneedle array devices” (University of Pittsburgh—Of the Commonwealth System of …, priority 2015, dated 2023).

What was measured:
[1] = tested on: epidermal cells of living human skin explants; conditions: 5 mg/g of CMC; arrays removed after 5 minutes; 72 hours of exposure
Protocol: Cytoxan® was integrated at a concentration of 5 mg/g of CMC, enabling delivery of approximately about 140 μg per array. This is a therapeutically relevant concentration based on the area of skin targeted, yet well below levels associated with systemic toxicities. Living human skin organ cultures were used to assess the cytotoxicty of Cytoxan®. Cytoxan® was delivered by application of arrays to skin explants as we previously described. Arrays and residual material were removed 5 minutes after application, and after 72 hours of exposure, culture living skin explants were cryo-sectioned and fixed. Apoptosis was evaluated using green fluorescent TUNEL assay (In Situ Cell Death Detection Kit, TMR […], Roche, cat #:11-684-795-910).

[2] = Dye release from MNAs inserted into 4% agar test-gels; assay type: physicochemical; conditions: dually loaded MNA
From the text: To illustrate the delivery of multiple drugs with distinct release kinetics, MNAs were fabricated to delivery two distinct cargos by distinct release kinetics. Specifically, MNAs were fabricated to release the marker Toluidine Blue in an initial burst, followed by a sustained release of the marker FD&C Red40. Dyes were directly loaded in the MNA scaffold matrix (in this case CMC) of the needle tips and in some cases a second dye, encapsulated in a sustained release polymer was layer directly below. MNAs were inserted into 4% agar test-gels and removed after 1 min.
Images of dye diffusion were collected at the indicated time points (FIG. 39A). […] Alternatively, MNAs were fabricated with toluidine blue tip-loaded and FD&C Red40 encapsulated in a sustained release polymer (FIG. 39C). MNAs were inserted into 4% agar test-gel and removed after 1 min. Images were collected at the indicated time-points. […] Upper panels depict images of microneedles from MNAs before application. The middle images are the imprints of the arrays 1 minute after application and MNA removal. Lower panels depicted the indicated representative magnified images at the indicated time points.

[3] = tested on: B16 skin tumors; experiment: B16 melanoma model: established skin tumors treated with MNAs; conditions: MNA once weekly for three weeks; for tumor growth: compared to untreated tumor bearing animals; for survival: untreated animals 100% mortality
Protocol: The B16 melanoma model was used as a model tumor to test these novel approaches.
Visible established cutaneous tumors were treated once weekly for three weeks with MNAs containing either doxorubicin alone, Poly(I:C) alone, or doxorubicin and Poly(I:C) incorporated into the same MNA. The doxorubicin dose chosen corresponds to an MNA dose that induces apoptosis in human skin without causing necrosis. Tumor growth and survival were measured regularly for the duration of the study.

Compound	tumor growth [3]	survival [3]	also measured
O=P1(N(CCCl)CCCl)NCCCO1 (centres unmarked) [Cytoxan®, cyclophosphamide]	–	–	apoptosis of epidermal cells (TUNEL) [1]: extensive apoptosis of epidermal cells
COc1cc(S(=O)(=O)[O-])c(C)cc1N=Nc1c(O)ccc2cc(S(=O)(=O)[O-])ccc12.[Na+].[Na+] [FD&C Red40]	–	–	release of encapsulated dye ([2]; dye encapsulated in a sustained release polymer): released slowly over an extended time period; period of release from depot ([2]; dye in underlying layer of sustained release polymer): 10 days
Cc1cc2nc3ccc(N(C)C)cc3[s+]c2cc1N.[Cl-] [Toluidine Blue]	–	–	release of tip-loaded dye ([2]; dye in CMC in the needle tip): released in an initial burst
COc1cccc2c1C(=O)c1c(O)c3c(c(O)c1C2=O)C[C@@](O)(C(=O)CO)C[C@@H]3O[C@H]1C[C@H](N)[C@H](O)[C@H](C)O1 [doxorubicin]	slowed tumor growth	30%	–
Poly(I:C)	slowed tumor growth	50%	–
